Measured values published in patent US5192807A, “Siderophores as antiparasitic agents” (priority 1987, dated 1993).
Entries after “also recorded” stand apart in the source; their conditions may differ.

Legend:
Plasmodium falciparum [1] = test: Inhibition of Plasmodium falciparum growth (35S-methionine incorporation) and effect of adding iron; format: cell-based; settings: for effect of FeCl3 on inhibition: 2.10^-3 M FeCl3 added immediately after the hydroxamate; for antiplasmodial activity / parasite growth inhibition: in vitro, no iron added; for effect of adding iron on the antiplasmodial action: iron added to the parasite culture
Experimental: FIG. 3b: the pool of hydroxamate (10 ml to 15 ml) collected by the ion exchange chromatography was placed in a Sephadex G50 column (25×2 cm) and eluted with 100 mM of phosphate buffer (pH 7.0), at a flow rate of 30 ml/h. Fractions (2 ml to 3 ml) were collected and the hydroxamate measured (A526 nm absorbance -- --), and the following were also measured: inhibition of Plasmodium falciparum growth (--.smallcircle.--) and A220 nm absorbance (--Δ--).
0.2 μm of the filtered fractions were placed in a synchronized culture of Plasmodium falciparum at a final concentration of 2.5%, as described in Table I. 100 μCi/ml of methionine marked with sulfur 35 (Amersham) were added on day 1 (rings). The parasite culture was collected on day 2 (schizonts) and the incorporation of ^35 S-methionine was measured in 10% TCA.

[2] = tested on: red blood cells infected with Plasmodium falciparum; test: Penetration and concentration in parasitized red blood cells; format: cell-based, human; settings: for penetration into parasitized red blood cells: schizont stage, aerobactin 7 μg/ml, desferioxamine 50 μg/ml
From the text: (§1) This test studies the incorporation of […] in normal red blood cells and in red blood cells infected with Plasmodium falciparum.
(§2) Tritium-marked aerobactin (0.2 mCi/mmol to 0.3 mCi/mmol) was purified as described above (FIG. 3) from a supernatant of strains of K5 1101 Klebsiella pneumoniae culture cultivated in an RPMI* medium containing 100 μCi/ml of tritium-marked lysine.
Desferioxamine marked with iodine 125 (50 mCi/mmol) was obtained by the iodine-producing technique.
(§3) The tritium-containing aerobactin (7 μg/ml) and the ^125 I containing desferioxamine (50 μg/ml) were introduced into synchronized cultures of Plasmodium falciparum (schizont stage, 20% parasitemia, hematocrit: 5%) and in a suspension of red blood cells (5% hematocrit). The cultures were incubated at 37° C. and 50 μl samples were taken at different times.
(§4) For each sample, the following were measured:
(§5) 1. The cpm in the culture supernatant;
2. The cpm in the supernatant of red blood cells lysis (the red blood cells were lysed in 40 vol. of RPMI diluted ten times and the free parasites were precipitated using a centrifuge rotating at 5,000 rpm for 5 min and were washed in RPMI); and
3. The cpm associated with free parasites.
The parasites are subsequently lysed in order to prepare soluble and membrane fractions as described previously (Braun-Breton et al, Molecular Biochem. Parasitol., 1986, 20, pp. 33-43).

[3] = tested on: schizonts of Plasmodium falciparum; test: Kinetics of inhibition of 35S-methionine incorporation in schizonts; format: cell-based; settings: for incorporation of 35S-methionine in the proteins of schizonts: FIG. 7, aerobactin 50 μg/ml, desferioxamine 500 μg/ml
Experimental: Time in minutes is plotted along the X axis and the percentage of inhibited schizonts is plotted up the Y axis.
The schizonts of Plasmodium falciparum were concentrated from a culture, they were washed and cultured at 37° C. for one hour. Solutions of hydroxamate (-- -- 50 μg/ml aerobactin and --.smallcircle.-- 500 μg/ml of desferioxamine) were added to the schizonts. Incubation at 37° C. continued and samples were taken at various different times. The hydroxamate was removed by washing the cells, and the cells were again cultured in the presence of 250 μCi/ml ^35 S-methionine for one hour.
The cultures were collected and the degree to which ^35 S-methionine had been incorporated was measured.

Plasmodium falciparum [4] = test: Quantitative in vitro growth inhibition of Plasmodium falciparum; format: cell-based; settings: 2.5 μg/ml (about 10^-5 M)
Plasmodium chaubaudi = test: Parasite multiplication and survival of mice infected with Plasmodium chaubaudi; format: in vivo
P. falciparum = test: Parasite multiplication and survival of mice infected with P. falciparum; format: in vivo; settings: FIG. 5
normal red blood cells = test: Concentration in healthy red blood cells; format: cell-based, human; settings: tritium-marked, 7 μg/ml, 37° C.
Experimental: as §1, §2, §3, §4, §5
2. The cpm in the supernatant of red blood cells lysis (the red blood cells were lysed in 40 vol. of RPMI diluted ten times and the free parasites were precipitated using a centrifuge rotating at 5,000 rpm for 5 min and were washed in RPMI); and […]

mice = test: Toxicity in mice; format: in vivo; settings: injection
fibroblasts = test: Toxicity on a culture of fibroblasts; format: cell-based; settings: purified
L fibroblasts = test: 35S-methionine incorporation in L fibroblasts; format: cell-based; settings: 5 hours
monkeys = settings: monkey, in vivo
[5] = Williams et al 1986; cited from earlier work
bacteria = settings: Williams et al 1986; cited from earlier work
[6] = cited from earlier work

**Q.** Which results are given for `CC(=O)N(O)CCCCCNC(=O)CCC(=O)N(O)CCCCCNC(=O)CCC(=O)N(O)CCCCCN` [Desferioxamine]?
**A.** effect of FeCl3 on inhibition (Plasmodium falciparum [1]): completely reverses the inhibition; antiplasmodial activity / parasite growth inhibition (Plasmodium falciparum [1]): inhibits parasite growth; effect of adding iron on the antiplasmodial action (Plasmodium falciparum [1]): totally reversed; penetration into parasitized red blood cells ([2]; 37° C.): does not penetrate into parasitized red blood cells; incorporation of 35S-methionine in the proteins of schizonts [3]: no action on the incorporation of methionine

**Q.** Which “antiplasmodial activity / parasite growth inhibition” value (Plasmodium falciparum [1]) does the source give for `Cl.NCCCC[C@H](N)C(=O)NO` [L-Lysine hydroxamate hydrochloride] here?
**A.** The value was “does not exhibit antiplasmodial activity”.

**Q.** What does the source list for `CC(=O)N(O)CCCCC(NC(=O)CC(O)(CC(=O)NC(CCCCN(O)C(C)=O)C(=O)O)C(=O)O)C(=O)O` (stereo not drawn) [aerobactin]?
**A.** effect of FeCl3 on inhibition (Plasmodium falciparum [1]): little effect on inhibition; plasmocidin activity after purification (Plasmodium falciparum [1]; Dowex-1 and Sephadex G50 purified, FIG. 3): plasmocidin activity subsists; effect of adding iron on the antiplasmodial action (Plasmodium falciparum [1]): does not reverse the plasmocidin action; inhibition of growth of Plasmodium falciparum (Plasmodium falciparum [4]): 100%; survival of mice (Plasmodium chaubaudi; 7.5 μg): do not survive; parasite multiplication and survival of mice (Plasmodium chaubaudi; purified, intravenous, 15 μg/mouse): causes parasite multiplication to be slowed down, allowing the mice to survive; parasite multiplication and survival of mice (P. falciparum) (P. falciparum): The same effect has been observed; location of intraparasitic radioactivity ([2]; lysed parasites, soluble and membrane fractions): recovered in the soluble fraction of the parasites; penetration into parasitized red blood cells ([2]; 37° C.): penetrates quickly into parasitized red blood cells; detection in the cytoplasm of the red blood cells ([2]; supernatant of red blood cell lysis): not detected; concentration in the parasitized cell ([2]; tritium-marked, 7 μg/ml, 37° C.): at least 200 times; concentration in healthy red blood cells (normal red blood cells): not concentrated in healthy red blood cells; toxicity for mice (mice): not toxic for mice; also recorded: no toxic effect has been observed; toxic effect on fibroblasts in culture (fibroblasts): no toxic effect on the cells; incorporation of 35S-methionine in the proteins of schizonts [3]: quickly suppresses the incorporation; inhibition at 50 µg/mL ([3]; Plasmodium falciparum, 2 h, 50 μg/ml, within two hours, 37° C., read-out: schizonts with inhibited incorporation of methionine): 90%; inhibition of methionine incorporation in L fibroblasts (L fibroblasts): Such activity was not found; toxic effect in monkeys (monkeys): no toxic effect has been observed; affinity for ferric derivatives relative to enterochelin [5]: lower affinity for ferric derivatives than enterochelin; concentration stimulating bacterial growth relative to enterochelin (bacteria): 500 times smaller

**Q.** For `CCN(CC)CCCC(C)Nc1ccnc2cc(Cl)ccc12` (stereo not drawn) [chloroquine], which “toxicity (prior art)” value [6] is on record?
**A.** Its value is “do not present significant toxicity”.
